Measurements as given in PubChem BioAssay AID2077 (NMMLSC, 2009).
Activity calls are given as the source filed them. How the calls were made is not given here.

target: Bcl-2-like protein 10 (Homo sapiens) (UniProt Q9HD36); experiment: inhibitors of Bim-Bcl-B binding, confirmation, biochemical, dose response, multiplexed HTS hits (AID 2077); details: bead-based flow cytometry, Bim peptide-Bcl-B binding
Sequence (Q9HD36 whole entry, looked up): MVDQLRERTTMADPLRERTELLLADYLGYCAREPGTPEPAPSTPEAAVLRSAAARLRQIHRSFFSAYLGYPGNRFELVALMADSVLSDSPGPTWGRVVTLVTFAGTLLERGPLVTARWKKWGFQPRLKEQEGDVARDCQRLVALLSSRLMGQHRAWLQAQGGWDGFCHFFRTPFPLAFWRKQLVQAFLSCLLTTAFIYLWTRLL

SMILES	EC50 [nM]
COc1ccc(N2C(=O)C(Cl)=C(NC3C(=O)N(c4ccccc4)N(C)C3C)C2=O)cc1 (stereo unspecified)	620

same assay, conditions: bead-based flow cytometry, Bim peptide-Bcl-B binding; at 100 µM (top of the series)

SMILES	response change, negative = inhibition
C=CS(=O)(=O)c1sc(Cl)c(N2CCOCC2)c1[N+](=O)[O-]	inactive
O=C1c2ccccc2C(=O)N1CN(C(=O)COc1ccc(Cl)cc1Cl)c1cccc(F)c1	inactive
Cc1nnc(Sc2cc(NCCO)c([N+](=O)[O-])c3nonc23)s1	inactive
O=C1C(Cl)=C(N2CCN(c3ccccc3[N+](=O)[O-])CC2)C(=O)c2ccccc21	inactive
CCN(CC)c1ccc(NC(=O)c2ccccc2F)cc1S(=O)(=O)Nc1ccccc1OC	inactive
COc1cc(CNc2ccc3[nH]c(=O)[nH]c3c2)cc(Br)c1OCC(=O)NC(C)(C)C	inactive
COc1ccc(CCNC(=O)c2ccc3nc(-c4ccco4)c(-c4ccco4)nc3c2)cc1OC	inactive
Cc1ccc(-c2nc3c(c(=O)[nH]c(=O)n3Cc3ccccc3)n2C)o1	inactive
CNC(CC(=O)c1ccc([N+](=O)[O-])cc1)C(Cl)(Cl)Cl (stereo unspecified)	inactive
O=[N+]([O-])c1c(NCCCO)cc(Sc2nc3ccccc3s2)c2nonc12	inactive
COc1cc(N=C2SSNC2Cl)c(OC)cc1Cl (stereo unspecified)	inactive
CC(=O)OCCCNc1cc(Sc2nc3ccccc3s2)c2nonc2c1[N+](=O)[O-]	inactive
COc1ccccc1NC1=C(NC(C)=O)C(=O)c2ccccc2C1=O	inactive
Cc1ccc(-c2cc(-c3ccc(C)o3)nc(N)c2C#N)cc1	inactive
CN(CCO)c1cc(Sc2nc3ccccc3s2)c2nonc2c1[N+](=O)[O-]	inactive
O=C(/C=C/c1ccc(-c2ccccc2[N+](=O)[O-])o1)c1ccccc1	inactive
Cc1ccc(-c2cc(C(=O)Nc3nccs3)c3ccccc3n2)o1	inactive
CCN(CC)C(=O)COC(=O)c1cc(-c2ccco2)nc2ccccc12	inactive
CCN(CC)c1ccc(NC(=O)COc2ccccc2C)cc1S(=O)(=O)Nc1ccccc1OC	inactive
CNC1CCC(Br)CC(C(=O)/C=C/c2cccc(OC)c2OC)C1=O (stereo unspecified)	inactive
CCN1C(=O)/C(=C\C=C2/C=CC=CN2CC)SC1=S	inactive
Cc1cc2nn(-c3cccc4ccccc34)nc2cc1N	inactive
Cc1ccc(-c2cc(-c3ccc(F)cc3)c(C#N)c(N)n2)o1	inactive
Oc1ccc(NCc2ccccc2OCc2ccccc2)cc1	inactive
CCOc1ccccc1CNc1ccc(O)cc1	inactive
